Test results from US20060069132A1, “Azolecarboxamide herbicides” (priority 2004, published 2006).

How the values were obtained:
Surinam grass = test: Test C pre-/postemergence herbicide test; format: in vivo, Urochloa decumbens
Procedure, shortened: (§1)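 Emerged plants at the 1- to 4-leaf stage (2–18 cm), or freshly planted seeds, received test chemicals in a non-phytotoxic solvent mixture with surfactant. Response was visually scored against controls after 12 to 14 days in the greenhouse, on a 0 (no effect) to 100 (complete control) scale.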

pigweed = test: Test C pre-/postemergence herbicide test; format: in vivo, Amaranthus retroflexus
Procedure, shortened: as §1

corn = test: Test B pre-/postemergence herbicide test; format: in vivo, Zea mays
Procedure, shortened: (§2)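 Herbicidal effect was judged by eye on a 0–100 scale after plants stood 13 to 15 days in the greenhouse following pre- or postemergence treatment with surfactant-containing formulations.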

eastern black nightshade = test: Test C pre-/postemergence herbicide test; format: in vivo, Solanum ptycanthum; settings: preemergence
Procedure, shortened: as §1

velvetleaf = test: Test C pre-/postemergence herbicide test; format: in vivo, Abutilon theophrasti
Procedure, shortened: as §1

large crabgrass = test: Test B pre-/postemergence herbicide test; format: in vivo, Digitaria sanguinalis
Procedure, shortened: as §2

cocklebur = test: Test C pre-/postemergence herbicide test; format: in vivo, Xanthium strumarium; settings: for Cocklebur plant response rating: Preemergence
Procedure, shortened: as §1

soybean = test: Test C pre-/postemergence herbicide test; format: in vivo, Glycine max
Procedure, shortened: as §1

[1] = 62 g ai/ha, preemergence, scale 0 to 100
[2] = 250 g ai/ha, scale 0-100, preemergence
[3] = 500 g ai/ha, scale 0 to 100 (0 no effect, 100 complete control), visual, 12 to 14 days, preemergence
[4] = 125 g ai/ha, scale 0 (no effect) to 100 (complete control), visual, 12 to 14 days, preemergence
[5] = 125 g ai/ha; 0 = no effect, 100 = complete control; preemergence
[6] = 500 g ai/ha; visual rating, 0 = no effect, 100 = complete control; preemergence
[7] = postemergence, 125 g ai/ha; visual rating, scale 0 (no effect) to 100 (complete control)
[8] = postemergence, 500 g ai/ha; scale 0 to 100, 0 is no effect, 100 is complete control
[9] = 125 g ai/ha, scale 0 (no effect) to 100 (complete control), visual, 12 to 14 days
[10] = 500 g ai/ha, scale 0 to 100 (0 no effect, 100 complete control), visual, 12 to 14 days
[11] = 500 g ai/ha, scale 0 to 100, 0 no effect, 100 complete control
[12] = 125 g ai/ha; 0 is no effect, 100 is complete control; preemergence
[13] = 125 g ai/ha; visual rating, scale 0 (no effect) to 100 (complete control); postemergence
[14] = Postemergence, 500 g ai/ha, scale 0 to 100
[15] = Postemergence, 250 g ai/ha, scale 0 to 100, 0 no effect, 100 complete control
[16] = postemergence, 125 g ai/ha, scale 0 to 100
[17] = postemergence, 62 g ai/ha, scale 0 to 100

## CCn1nc(C(C)(C)C)cc1C(=O)Nc1cc(C(=O)N2CCCC2)ccc1F [Compound 242]
Surinam grass; [1]
  Plant response rating, Surinam Grass: 85
Surinam grass; [2]
  Plant response rating, Surinam Grass: 95
Surinam grass; [3]
  Plant response rating, Surinam Grass: 100
pigweed; [1]
  Plant response rating, Pigweed: 100
pigweed; [4]
  Plant response rating, Pigweed: 100
pigweed; [2]
  Plant response rating, Pigweed: 100
pigweed; [3]
  Plant response rating, Pigweed: 100
corn; [5]
  Corn plant response rating (0 to 100 scale): 30
corn; [6]
  Plant response rating, Corn: 60
corn; [7]
  Corn plant response rating: 10
corn; [8]
  Corn plant response rating: 40
Eastern black nightshade; 62 g ai/ha, scale 0 to 100
  Plant response rating, Nightshade: 100
Eastern black nightshade; [9]
  Plant response rating, Nightshade: 100
Eastern black nightshade; 250 g ai/ha, scale 0-100
  Plant response rating, Nightshade: 100
Eastern black nightshade; [10]
  Plant response rating, Nightshade: 100
velvetleaf; [1]
  Plant response rating, Velvetleaf: 100
velvetleaf; [2]
  Plant response rating, Velvetleaf: 100
velvetleaf; [3]
  Plant response rating, Velvetleaf: 100
Large crabgrass; [5]
  Crabgrass, Large plant response rating (0 to 100 scale): 90
Large crabgrass; [6]
  Plant response rating, Crabgrass, Large: 100
Large crabgrass; [7]
  Crabgrass, Large plant response rating: 30
Large crabgrass; [8]
  Crabgrass, Large plant response rating: 50
cocklebur; [1]
  Plant response rating, Cocklebur: 0
cocklebur; [4]
  Plant response rating, Cocklebur: 0
cocklebur; [2]
  Plant response rating, Cocklebur: 35
cocklebur; [11]
  Cocklebur plant response rating: 50
soybean; [1]
  Plant response rating, Soybean: 0
soybean; [2]
  Plant response rating, Soybean: 65
soybean; [3]
  Plant response rating, Soybean: 75

## CCNC(=O)c1cccc(NC(=O)c2nn(C(C)(C)CC)nc2CC)c1 [Compound 376]
Surinam grass; [1]
  Plant response rating, Surinam Grass: 40
Surinam grass; 125 g ai/ha, preemergence
  Plant response rating (0 = no effect, 100 = complete control), Surinam Grass: 60
Surinam grass; [2]
  Plant response rating, Surinam Grass: 90
Surinam grass; [3]
  Plant response rating, Surinam Grass: 100
pigweed; [1]
  Plant response rating, Pigweed: 100
pigweed; 125 g ai/ha, preemergence
  Plant response rating (0 = no effect, 100 = complete control), Pigweed: 100
pigweed; [2]
  Plant response rating, Pigweed: 100
pigweed; [3]
  Plant response rating, Pigweed: 100
corn; [12]
  Plant response rating (0 to 100 scale), Corn: 40
corn; [13]
  Corn plant response rating: 10
corn; [8]
  Corn plant response rating: 30
Eastern black nightshade; 62 g ai/ha, scale 0 to 100
  Plant response rating, Nightshade: 95
Eastern black nightshade; 125 g ai/ha
  Plant response rating (0 = no effect, 100 = complete control), Nightshade: 100
Eastern black nightshade; 250 g ai/ha, scale 0-100
  Plant response rating, Nightshade: 100
Eastern black nightshade; [10]
  Plant response rating, Nightshade: 100
velvetleaf; [1]
  Plant response rating, Velvetleaf: 0
velvetleaf; 125 g ai/ha, preemergence
  Plant response rating (0 = no effect, 100 = complete control), Velvetleaf: 5
velvetleaf; [3]
  Plant response rating, Velvetleaf: 50
Large crabgrass; [12]
  Plant response rating (0 to 100 scale), Crabgrass, Large: 80
Large crabgrass; [13]
  Crabgrass, Large plant response rating: 10
Large crabgrass; [8]
  Crabgrass, Large plant response rating: 50
cocklebur; [1]
  Plant response rating, Cocklebur: 0
cocklebur; 125 g ai/ha, preemergence
  Plant response rating (0 = no effect, 100 = complete control), Cocklebur: 0
cocklebur; [2]
  Plant response rating, Cocklebur: 0
cocklebur; [3]
  Plant response rating, Cocklebur: 5
soybean; [1]
  Plant response rating, Soybean: 0
soybean; 125 g ai/ha, preemergence
  Plant response rating (0 = no effect, 100 = complete control), Soybean: 10
soybean; [2]
  Plant response rating, Soybean: 10
soybean; [3]
  Plant response rating, Soybean: 10

## CCn1nc(C(C)(C)C)cc1C(=O)Nc1cccc(OC(F)(F)C(F)F)c1 [Compound 333]
Surinam grass; [2]
  Plant response rating, Surinam Grass: 5
Surinam grass; [3]
  Plant response rating, Surinam Grass: 20
Surinam grass; [14]
  Surinam Grass plant response rating: 10
Surinam grass; [15]
  Plant response rating, Surinam Grass: 5
Surinam grass; [16]
  Plant response rating, Surinam Grass: 5
Surinam grass; [17]
  Plant response rating, Surinam Grass: 5
pigweed; [1]
  Plant response rating, Pigweed: 100
pigweed; [4]
  Plant response rating, Pigweed: 100
pigweed; [2]
  Plant response rating, Pigweed: 100
pigweed; [3]
  Plant response rating, Pigweed: 100
pigweed; [14]
  Pigweed plant response rating: 100
pigweed; [15]
  Plant response rating, Pigweed: 100
pigweed; [16]
  Plant response rating, Pigweed: 100
pigweed; [17]
  Plant response rating, Pigweed: 65
corn; [12]
  Plant response rating (0 to 100 scale), Corn: 0
corn; [13]
  Corn plant response rating: 10
corn; [6]
  Plant response rating, Corn: 0
corn; [8]
  Corn plant response rating: 10
Eastern black nightshade; [9]
  Plant response rating, Nightshade: 20
Eastern black nightshade; 250 g ai/ha, scale 0-100
  Plant response rating, Nightshade: 98
Eastern black nightshade; [10]
  Plant response rating, Nightshade: 100
velvetleaf; [1]
  Plant response rating, Velvetleaf: 0
velvetleaf; [2]
  Plant response rating, Velvetleaf: 50
velvetleaf; [3]
  Plant response rating, Velvetleaf: 55
velvetleaf; [14]
  Velvetleaf plant response rating: 80
velvetleaf; [15]
  Plant response rating, Velvetleaf: 50
velvetleaf; [16]
  Plant response rating, Velvetleaf: 50
Large crabgrass; [12]
  Plant response rating (0 to 100 scale), Crabgrass, Large: 40
Large crabgrass; [13]
  Crabgrass, Large plant response rating: 40
Large crabgrass; [6]
  Plant response rating, Crabgrass, Large: 70
Large crabgrass; [8]
  Crabgrass, Large plant response rating: 100
cocklebur; [1]
  Plant response rating, Cocklebur: 0
cocklebur; [4]
  Plant response rating, Cocklebur: 0
cocklebur; [2]
  Plant response rating, Cocklebur: 0
cocklebur; [15]
  Plant response rating, Cocklebur: 80
cocklebur; [11]
  Cocklebur plant response rating: 5
cocklebur; [16]
  Plant response rating, Cocklebur: 5
cocklebur; [17]
  Plant response rating, Cocklebur: 0
soybean; [1]
  Plant response rating, Soybean: 0
soybean; [2]
  Plant response rating, Soybean: 0
soybean; [3]
  Plant response rating, Soybean: 0
soybean; [14]
  Soybean plant response rating: 45
soybean; [15]
  Plant response rating, Soybean: 40
soybean; [16]
  Plant response rating, Soybean: 30
soybean; [17]
  Plant response rating, Soybean: 30
